Key:
[1] = Clearance of intravenously injected JP4-039 measured by EPR; format: in vivo, mouse; parameters: dose or concentration left out as unconfirmed
Description: FIGS. 13A-13B. Pharmacokinetics of clearance of JP4-039 intravenously injected into C57BL/6JHNsd mice in (FIG. 13A) plasma and (FIG. 13B) lung. […] Serum samples were collected and assayed. Each symbol represents an individual mouse. The methods for assay of nitroxide by EPR have been published previously (Borisenko G G, et al. J Am Chem Soc 4(30): 9221-9232, 2004 and Jiang J, et al. A mitochondria-targeted triphenylphosphonium-conjugated nitroxide functions as a radioprotector/mitigator. Radiat Res 172(6): 706-717, 2009).
Measurement of JP4-039 nitroxide in serum and in tissues by electron paramagnetic resonance. Electron paramagnetic resonance (EPR) spectra of nitroxide radicals in cells or in mitochondrial fractions were recorded after mixing with acetonitrile (1:1 v/v) after 5 min incubation with 2 mM K3Fe(CN)6 using a JEOL-RE1XEPR spectrometer (JEOL, USA, Inc., Peabody, Mass., USA) under the following conditions: 3350 G center field, 25 G scan range, 0.79 G field modulation, 20 mW microwave power, 0.1 s time constant, 4 min scan time. Under these experimental conditions, nitroxides were not detectably oxidized by […] to EPR-silent oxoamminium cations. Mitochondria-enriched fractions were obtained by differential centrifugation. […] Partitioning efficiency was calculated as a percentage of the initial signal. […] After that, samples were centrifuged at 10,000 g for 5 min, and the pellets washed twice with the incubation buffer and analyzed by EPR as described previously (Borisenko G G, et al. Nitroxides scavenge myeloperoxidase-catayzed thiyl radicals in model systems and in cells. J Am Chem Soc 4(30): 9221-9232, 2004 and Jiang J, et al. A mitochondria-targeted triphenylphosphonium-conjugated nitroxide functions as a radioprotector/mitigator. Radiat Res 172(6): 706-717, 200938-39).
Intravenous JP4-039 systemic pharmacokinetics and intraesophageal formulation mediated delivery to esophagus. […] JP4-039 was cleared from plasma by 10 min, but was detected in lung (and intestine) for over 30 minutes.

[2] = system: GFP+ cells in the esophagus; experiment: GFP+ marrow-derived cells in the irradiated esophagus (cell sorting); format: in vivo, mouse
Description: FIGS. 18A-F. Detection of GFP+ marrow-derived cells in the irradiated mouse esophagus after intravenous transplant. Mice were irradiated to 29 Gy to the esophagus on day 0, and then injected with 1×10^7 GFP+ marrow cells intravenously on day 5 according to published methods (Epperly M W, et al. Int J Cancer (Radiat Oncol Invest) 96: 221-233, 2001; Epperly M W, et al. In Vivo 19: 997-1004, 2005; and Epperly M W, et al. Protection of esophageal stem cells from ionizing irradiation by MnSOD-plasmid liposome gene therapy. In Vivo 19: 965-974, 2005). Five esophagus samples were removed from each animal in the various subgroups on days 1 (FIG. 18A), 3 (FIG. 18B), 7 (FIG. 18C), 14 (FIG. 18D), 28 (FIG. 18E) and 60 (FIG. 18F) after marrow injection. Samples of excised esophagi were prepared as single cell suspensions and then analyzed by cell […] for GFP+ cells/106 esophagus cells. Each symbol represents one esophagus.
Bone marrow transplantation, esophageal excision and cell sorting. Five days after irradiation, the time shown to optimize marrow cell homing to the irradiated esophagus, mice received intravenous injection of 1.0×10^7 C57BL/6HNsd GFP+ male bone marrow cells prepared as single-cell suspension from donor male mice according to published methods (Niu Y, et al. Irradiated esophageal cells are protected from radiation-induced recombination by MnSOD gene therapy. Rad Res 173: 453-461, 2010 and Niu Y, et al. Intraesophageal MnSOD-plasmid liposome administration enhances engraftment and self-renewal capacity of bone marrow derived progenitors of esophageal squamous epithelium. Gene Therapy 15: 347-356, 2008). At serial time points after marrow transplantation, esophagus specimens were removed, and single cell suspensions prepared according to published methods (Id.). The esophagus cell suspensions were sorted for GFP+ cells. The number of GFP+ cells per 10^6 was calculated as described previously (Id.). (GFP+) cells were placed on slides, and stained for detection of donor cell markers (Id.).
Statistics. In vitro data analysis and estimation of survival of mice were performed using published statistical methods (Epperly M W, et al. Radiat Res 155: 2-14, 2001). The Kruskal-Wallis test and post-hoc Mann-Whitney test were used to evaluate donor marrow cells in the esophagus as described (Niu Y, et al. Rad Res 173: 453-461, 2010). A SAS statistical program was used to perform the statistical analysis (SAS Institute, Cary, N.C., USA).

[3] = system: KM101 human marrow stromal cells; experiment: Irradiation survival of KM101 marrow stromal cells (colony assay); format: cell-based; conditions: for n (shoulder): 0 to 6 Gy
Method: FIG. 7 is a graph showing that JP4-039 is an effective mitigator of irradiation damage to KM101 human marrow stromal cells. KM101 cells were incubated in media alone or in JP4-039 ([…]) for one hour before irradiation or 24 hours after irradiation. The cells were irradiated to doses ranging from 0 to 6 Gy and plated in 4 well plates. Seven days later the cells were stained with crystal violet and colonies of greater than 50 cells counted. Cells incubated in JP4-039 either before or after irradiation were more radioresistant as shown by an increased shoulder of n=2.3±0.2 or 2.2±0.2, respectively compared to n of 1.1±0.1 for the KM101 cells (p=0.0309 or 0.0386, respectively).

CC(C)C[C@@H](/C=C/CC(=O)NC1CC(C)(C)N([O])C(C)(C)C1)NC(=O)OC(C)(C)C [JP4-039, TEMPO-4-yl-(S,E)-5-(tert-butoxycarbonylamino)-7-methyloct-3-enamide]
time detected in intestine [1]: over 30 minutes | time detected in lung [1]: over 30 minutes | time by which cleared from plasma ([1]; intravenous in 100 μl): ≤ 10 min | number of GFP+ cells per 10^6 cells in the esophagus, median (inter-quartile range) ([2]; 29 Gy + JP4-039 (after irradiation), day 1): 0.5 (0-1.6) per 10^6 cells | number of GFP+ cells per 10^6 cells in the esophagus, median (inter-quartile range) ([2]; 29 Gy + JP4-039 (after irradiation), day 3): 1.5 (0.5-1.7) per 10^6 cells | number of GFP+ cells per 10^6 cells in the esophagus, median (inter-quartile range) ([2]; 29 Gy + JP4-039 (after irradiation), day 7): 0 (0-0.3) per 10^6 cells | number of GFP+ cells per 10^6 cells in the esophagus, median (inter-quartile range) ([2]; 29 Gy + JP4-039 (after irradiation), day 28): 0.85 (0-4.15) per 10^6 cells | number of GFP+ cells per 10^6 cells in the esophagus, median (inter-quartile range) ([2]; JP4-039 + 29 Gy (before irradiation), day 1): 0.9 (0.3-2.6) per 10^6 cells | number of GFP+ cells per 10^6 cells in the esophagus, median (inter-quartile range) ([2]; JP4-039 + 29 Gy (before irradiation), day 3): 0.3 (0-3.1) per 10^6 cells | number of GFP+ cells per 10^6 cells in the esophagus, median (inter-quartile range) ([2]; JP4-039 + 29 Gy (before irradiation), day 7): 0.28 (0.13-0.65) per 10^6 cells | number of GFP+ cells per 10^6 cells in the esophagus, median (inter-quartile range) ([2]; JP4-039 + 29 Gy (before irradiation), day 28): 0 (0-0) per 10^6 cells | number of GFP+ cells per 10^6 cells in the esophagus, median (inter-quartile range) ([2]; JP4-039 + 29 Gy (before irradiation), day 60): 0 (0-0) per 10^6 cells | n (shoulder) ([3]; 24 hours after irradiation, KM101 alone 1.1±0.1, p=0.0386): 2.2±0.2 | Do ([3]; before or after irradiation vs media alone): no significant change | n (shoulder) ([3]; for one hour before irradiation, KM101 alone 1.1±0.1, p=0.0309): 2.3±0.2

From US20190210969A1, “INTRAESOPHAGEAL ADMINISTRATION OF TARGETED NITROXIDE AGENTS FOR PROTECTION AGAINST IONIZING IRRADIATION-INDUCED ESOPHAGITIS” (University of Pittsburgh - Of the Commonwealth System of …, priority 2010, published 2019)
